From paper PMC6792352, “Limited Chemical Structural Diversity Found to Modulate Thyroid Hormone Receptor in the Tox21 Chemical Library” (Environmental Health Perspectives, 2019)
Like-named read-outs stand apart in the source and are kept apart here.

Tests used:
in vitro = conditions: rat, gh3-tre-luc cells, AC50 (uM) modified / 1000
GH3-TRE-Luc cell line = conditions: read-out: AC50 (uM) modified / 1000, viability, 1 nM T3 present, 24 h

Oc1c(Cl)cc(Cl)c(Cl)c1Cl [2,3,4,6-Tetrachlorophenol]
CC50 at 24 h (in vitro): 71.8 µM
CC50 (GH3-TRE-Luc cell line; Tox21_110001=Tox21_302932): 64.3 µM

CC(C)CC(C)(c1ccc(O)cc1)c1ccc(O)cc1 [4,4'-(4-Methylpentane-2,2-diyl)diphenol]
CC50 at 24 h (in vitro): 41.6 µM
CC50 (GH3-TRE-Luc cell line; Tox21_110001=Tox21_303608): 34 µM

CCCCCCCCCCCCCCCC[N+](C)(C)CC [Ethylhexadecyldimethylammonium bromide]
CC50 at 24 h (in vitro): 11.9 µM
CC50 (GH3-TRE-Luc cell line; Tox21_110001=Tox21_112326): 6.28 µM

Oc1ccc2ccccc2c1N=Nc1ccccc1 [C.I. Solvent Yellow 14]
CC50 at 24 h (in vitro): > 90 µM
CC50 (GH3-TRE-Luc cell line; Tox21_110001=Tox21_300297): 62.3 µM

CC(C)(C)CC(C)(C)c1ccc(O)c(-n2nc3ccccc3n2)c1 [Octrizole]
CC50 at 24 h (in vitro): 35.4 µM
CC50 (GH3-TRE-Luc cell line; Tox21_110001=Tox21_112086): 21.6 µM
CC50 (GH3-TRE-Luc cell line; Tox21_110001=Tox21_300498): 32.7 µM

Oc1cccc(-c2c3nc(c(-c4cccc(O)c4)c4ccc([nH]4)c(-c4cccc(O)c4)c4nc(c(-c5cccc(O)c5)c5ccc2[nH]5)CC4)C=C3)c1 [Temoporfin]
CC50 at 24 h (in vitro): 13.6 µM
CC50 (GH3-TRE-Luc cell line; Tox21_110001=Tox21_113297): 11.2 µM

c1ccc(Nc2ccc3ccccc3c2)cc1 [N-Phenyl-2-naphthylamine]
CC50 at 24 h (in vitro): 47.3 µM
CC50 (GH3-TRE-Luc cell line; Tox21_110001=Tox21_302900): > 90 µM

CCN(CCN)c1cccc(C)c1 [N-Ethyl-N-(3-methylphenyl)ethane-1,2-diamine]
CC50 at 24 h (in vitro): 61.5 µM
CC50 (GH3-TRE-Luc cell line; Tox21_110001=Tox21_303371): 69.9 µM

c1cc(OCC2CO2)ccc1Cc1ccc(OCC2CO2)cc1 (centres unmarked) [Bis[4-(glycidyloxy)phenyl]methane]
CC50 at 24 h (in vitro): 42.4 µM
CC50 (GH3-TRE-Luc cell line; Tox21_110001=Tox21_303420): 48.6 µM

CC(C)=CC1C(C(=O)OCc2coc(Cc3ccccc3)c2)C1(C)C (centres unmarked) [Resmethrin]
CC50 at 24 h (in vitro): > 90 µM
CC50 (GH3-TRE-Luc cell line; Tox21_110001=Tox21_300920): 55.3 µM

CC1(C)C(C(=O)OC(C#N)c2cccc(Oc3ccccc3)c2)C1(C)C (centres unmarked) [Fenpropathrin]
CC50 at 24 h (in vitro): > 90 µM
CC50 (GH3-TRE-Luc cell line; Tox21_110001=Tox21_300882): 80.7 µM

C[C@H](CCC(=O)O)[C@H]1CC[C@H]2[C@@H]3CC[C@@H]4C[C@H](O)CC[C@]4(C)[C@H]3CC[C@]12C [Lithocholic acid]
CC50 at 24 h (in vitro): 24.5 µM
CC50 (GH3-TRE-Luc cell line; Tox21_110001=Tox21_302791): 47.9 µM

C#CCOS(=O)OC1CCCCC1Oc1ccc(C(C)(C)C)cc1 (centres unmarked) [Propargite]
CC50 at 24 h (in vitro): 5.83 µM
CC50 (GH3-TRE-Luc cell line; Tox21_110001=Tox21_300805): 7.01 µM

CC(C)N(C(=O)SCC(Cl)=C(Cl)Cl)C(C)C [Tri-allate]
CC50 at 24 h (in vitro): 55.9 µM
CC50 (GH3-TRE-Luc cell line; Tox21_110001=Tox21_300671): 53.5 µM

C#C[C@]1(OC(C)=O)CC[C@H]2[C@@H]3CCC4=C[C@@H](OC(C)=O)CC[C@@H]4[C@H]3CC[C@@]21C [Ethynodiol diacetate]
CC50 at 24 h (in vitro): 45 µM
CC50 (GH3-TRE-Luc cell line; Tox21_110001=Tox21_112924): 44.6 µM

O=[N+]([O-])C(Br)(CO)CO [Bronopol]
CC50 at 24 h (in vitro): 22 µM
CC50 (GH3-TRE-Luc cell line; Tox21_110001=Tox21_112079): 21.8 µM

c1ccc(Nc2cccc3ccccc23)cc1 [N-Phenyl-1-naphthylamine]
CC50 at 24 h (in vitro): 64.9 µM
CC50 (GH3-TRE-Luc cell line; Tox21_110001=Tox21_303075): 61.1 µM

O=C1CN(/N=C/c2ccc([N+](=O)[O-])o2)C(=O)N1 [Nitrofurantoin]
CC50 at 24 h (in vitro): 62.5 µM
CC50 (GH3-TRE-Luc cell line; Tox21_110001=Tox21_300602): 70.6 µM

CC(C)(C)c1ccc(O)c(O)c1 [4-tert-Butylcatechol]
CC50 at 24 h (in vitro): 43 µM
CC50 (GH3-TRE-Luc cell line; Tox21_110001=Tox21_400003): 49.3 µM

Oc1ccc(C(c2ccc(O)cc2)(C(F)(F)F)C(F)(F)F)cc1 [Bisphenol AF]
CC50 at 24 h (in vitro): 32.9 µM
CC50 (GH3-TRE-Luc cell line; Tox21_110001=Tox21_303641): 54.4 µM

Cc1cc(C(C)(C)CC(C)(C)C)ccc1OCCOCC[N+](C)(C)Cc1ccccc1 [Methylbenzethonium chloride]
CC50 at 24 h (in vitro): 9.38 µM
CC50 (GH3-TRE-Luc cell line; Tox21_110001=Tox21_301446): 7.92 µM

CC1COc2ccccc2N1C(=O)C(Cl)Cl (centres unmarked) [Benoxacor]
CC50 at 24 h (in vitro): 11.9 µM
CC50 (GH3-TRE-Luc cell line; Tox21_110001=Tox21_303359): 22.1 µM

N#C/C(=C1/SC[C@@H](c2ccc(Cl)cc2Cl)S1)n1ccnc1 [Luliconazole]
CC50 at 24 h (in vitro): > 50 µM
CC50 (GH3-TRE-Luc cell line; Tox21_110001=Tox21_112974): 40.6 µM

COc1cc2c(cc1O)CCN[C@]21CS[C@@H]2c3c(OC(C)=O)c(C)c4c(c3[C@H](COC1=O)N1[C@@H]2[C@H]2c3c(cc(C)c(OC)c3O)C[C@@H]([C@@H]1O)N2C)OCO4 [Trabectedin]
CC50 at 24 h (in vitro): 0.00433 µM
CC50 (GH3-TRE-Luc cell line; Tox21_110001=Tox21_113236): 0.0049 µM

Cc1[nH]cnc1C[C@H]1CCc2c(C)c3ccccc3n2C1=O [Fabesetron]
CC50 at 24 h (in vitro): 33.3 µM
CC50 (GH3-TRE-Luc cell line; Tox21_110001=Tox21_113200): 23.5 µM

CCCCCCCCn1sccc1=O [Octhilinone]
CC50 at 24 h (in vitro): 5.52 µM
CC50 (GH3-TRE-Luc cell line; Tox21_110001=Tox21_300566): 3.8 µM
